How the values were obtained:
Assay in all cases: Kinase profiling
Assay type in all cases: biochemical
RPS6KA3 = target: T1, RPS6KA3 (Homo sapiens, UniProt P51812)
T1 construct: purchased ProQinase (Freiburg, Germany)
Experimental: (§1) The analysis was performed by ProQinase (Freiburg, Germany).

PDGFRalpha = target: T2, PDGFRalpha (Homo sapiens, UniProt P16234)
T2 construct: purchased ProQinase (Freiburg, Germany)
Experimental: as §1

GRK2 = target: T3, GRK2 (Homo sapiens, UniProt P25098)
T3 construct: purchased ProQinase (Freiburg, Germany)
T3 sequence (P25098 1-689): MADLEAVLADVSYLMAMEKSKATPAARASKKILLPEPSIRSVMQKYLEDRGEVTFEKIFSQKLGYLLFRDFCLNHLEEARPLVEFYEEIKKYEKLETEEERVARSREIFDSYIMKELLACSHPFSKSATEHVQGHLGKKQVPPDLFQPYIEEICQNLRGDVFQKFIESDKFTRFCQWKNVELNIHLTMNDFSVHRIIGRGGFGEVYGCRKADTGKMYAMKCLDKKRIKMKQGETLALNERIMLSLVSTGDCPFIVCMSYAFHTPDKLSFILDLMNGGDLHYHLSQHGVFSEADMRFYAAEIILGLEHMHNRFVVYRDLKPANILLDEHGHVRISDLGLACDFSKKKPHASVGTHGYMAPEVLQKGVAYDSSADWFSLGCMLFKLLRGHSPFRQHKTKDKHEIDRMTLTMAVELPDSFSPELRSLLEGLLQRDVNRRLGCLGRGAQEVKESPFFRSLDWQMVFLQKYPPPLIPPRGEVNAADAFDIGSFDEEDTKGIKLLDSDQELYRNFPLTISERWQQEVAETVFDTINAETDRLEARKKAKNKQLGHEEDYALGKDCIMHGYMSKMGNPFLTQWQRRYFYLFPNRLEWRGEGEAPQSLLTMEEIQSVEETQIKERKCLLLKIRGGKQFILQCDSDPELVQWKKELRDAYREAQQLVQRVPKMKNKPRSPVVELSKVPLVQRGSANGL
Experimental: as §1

VRK2 = target: T4, VRK2 (Homo sapiens, UniProt Q86Y07)
T4 construct: purchased ProQinase (Freiburg, Germany)
T4 sequence (Q86Y07 whole entry): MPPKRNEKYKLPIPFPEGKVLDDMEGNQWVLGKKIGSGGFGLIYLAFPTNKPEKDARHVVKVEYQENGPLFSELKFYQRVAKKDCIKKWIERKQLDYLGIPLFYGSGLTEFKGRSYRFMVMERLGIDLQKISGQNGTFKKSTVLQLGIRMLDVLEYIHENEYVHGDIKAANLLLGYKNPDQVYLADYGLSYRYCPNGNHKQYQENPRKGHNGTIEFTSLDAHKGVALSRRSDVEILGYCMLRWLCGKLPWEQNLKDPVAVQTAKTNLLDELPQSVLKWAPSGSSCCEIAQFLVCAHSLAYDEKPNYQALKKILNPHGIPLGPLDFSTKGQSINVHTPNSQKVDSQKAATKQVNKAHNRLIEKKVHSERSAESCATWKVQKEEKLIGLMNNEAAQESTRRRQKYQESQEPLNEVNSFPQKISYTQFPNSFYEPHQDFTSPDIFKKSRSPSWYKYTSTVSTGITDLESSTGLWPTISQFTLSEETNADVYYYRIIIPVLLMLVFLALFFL
Experimental: as §1

EIF2AK3 = target: T5, EIF2AK3 (Homo sapiens, UniProt Q9NZJ5)
T5 construct: purchased ProQinase (Freiburg, Germany)
T5 sequence (Q9NZJ5 30-1116): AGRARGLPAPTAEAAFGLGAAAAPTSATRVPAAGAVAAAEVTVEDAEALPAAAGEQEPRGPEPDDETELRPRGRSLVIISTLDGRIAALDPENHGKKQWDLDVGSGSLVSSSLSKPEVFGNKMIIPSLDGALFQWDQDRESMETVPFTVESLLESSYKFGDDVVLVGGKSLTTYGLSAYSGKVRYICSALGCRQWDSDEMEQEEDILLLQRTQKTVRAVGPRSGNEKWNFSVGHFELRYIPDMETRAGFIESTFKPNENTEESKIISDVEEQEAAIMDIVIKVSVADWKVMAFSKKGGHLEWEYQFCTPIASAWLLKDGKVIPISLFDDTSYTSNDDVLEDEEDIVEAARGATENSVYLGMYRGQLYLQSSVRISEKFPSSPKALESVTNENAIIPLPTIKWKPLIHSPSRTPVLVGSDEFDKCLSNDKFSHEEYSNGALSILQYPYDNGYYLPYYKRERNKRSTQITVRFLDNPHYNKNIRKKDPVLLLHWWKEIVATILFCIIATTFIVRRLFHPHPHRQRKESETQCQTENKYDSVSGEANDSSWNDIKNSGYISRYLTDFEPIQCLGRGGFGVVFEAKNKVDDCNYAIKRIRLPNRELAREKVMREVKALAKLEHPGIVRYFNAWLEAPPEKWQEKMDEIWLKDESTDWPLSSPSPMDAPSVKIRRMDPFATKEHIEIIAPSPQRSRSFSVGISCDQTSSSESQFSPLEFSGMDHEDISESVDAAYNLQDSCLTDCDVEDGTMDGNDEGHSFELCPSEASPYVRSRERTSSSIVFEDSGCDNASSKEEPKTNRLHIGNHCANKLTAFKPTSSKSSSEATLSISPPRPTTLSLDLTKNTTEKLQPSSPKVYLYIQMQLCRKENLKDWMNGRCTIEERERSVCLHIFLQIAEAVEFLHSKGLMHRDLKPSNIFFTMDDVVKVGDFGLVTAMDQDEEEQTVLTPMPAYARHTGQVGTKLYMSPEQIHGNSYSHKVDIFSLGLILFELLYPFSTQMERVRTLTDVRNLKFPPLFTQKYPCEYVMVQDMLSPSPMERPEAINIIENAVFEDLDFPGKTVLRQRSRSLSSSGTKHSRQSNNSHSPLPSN
Experimental: as §1

RAF1 YDYD = target: T6, RAF1 YDYD (Homo sapiens, UniProt P04049, Y340D/Y341D)
T6 construct: purchased ProQinase (Freiburg, Germany)
Experimental: as §1

TRKC = target: T7, TRKC (Homo sapiens, UniProt Q16288)
T7 construct: purchased ProQinase (Freiburg, Germany)
T7 sequence (Q16288 32-839): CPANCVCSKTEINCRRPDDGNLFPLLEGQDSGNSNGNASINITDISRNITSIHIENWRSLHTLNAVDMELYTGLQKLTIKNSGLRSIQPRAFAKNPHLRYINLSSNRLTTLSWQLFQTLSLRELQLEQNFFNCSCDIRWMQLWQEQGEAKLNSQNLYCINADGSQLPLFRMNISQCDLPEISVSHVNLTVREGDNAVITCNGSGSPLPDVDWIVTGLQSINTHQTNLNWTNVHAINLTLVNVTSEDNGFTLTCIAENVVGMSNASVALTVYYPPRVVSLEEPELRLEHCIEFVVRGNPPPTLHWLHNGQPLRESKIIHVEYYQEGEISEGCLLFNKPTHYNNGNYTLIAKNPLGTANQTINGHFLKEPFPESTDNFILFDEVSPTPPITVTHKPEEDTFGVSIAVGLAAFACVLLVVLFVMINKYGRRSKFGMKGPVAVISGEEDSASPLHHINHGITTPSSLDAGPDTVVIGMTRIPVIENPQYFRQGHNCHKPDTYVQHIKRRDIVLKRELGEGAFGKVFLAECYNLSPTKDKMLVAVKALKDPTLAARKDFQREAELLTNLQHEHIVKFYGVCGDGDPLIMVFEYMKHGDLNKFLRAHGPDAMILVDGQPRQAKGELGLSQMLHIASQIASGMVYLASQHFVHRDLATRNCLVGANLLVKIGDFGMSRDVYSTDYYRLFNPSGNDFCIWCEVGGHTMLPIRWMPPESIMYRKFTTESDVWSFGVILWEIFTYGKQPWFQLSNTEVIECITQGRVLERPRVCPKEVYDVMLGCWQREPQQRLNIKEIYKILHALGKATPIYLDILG
Experimental: as §1

SRPK1 = target: T8, SRPK1 (Homo sapiens, UniProt Q96SB4)
T8 construct: purchased ProQinase (Freiburg, Germany)
T8 sequence (Q96SB4 whole entry): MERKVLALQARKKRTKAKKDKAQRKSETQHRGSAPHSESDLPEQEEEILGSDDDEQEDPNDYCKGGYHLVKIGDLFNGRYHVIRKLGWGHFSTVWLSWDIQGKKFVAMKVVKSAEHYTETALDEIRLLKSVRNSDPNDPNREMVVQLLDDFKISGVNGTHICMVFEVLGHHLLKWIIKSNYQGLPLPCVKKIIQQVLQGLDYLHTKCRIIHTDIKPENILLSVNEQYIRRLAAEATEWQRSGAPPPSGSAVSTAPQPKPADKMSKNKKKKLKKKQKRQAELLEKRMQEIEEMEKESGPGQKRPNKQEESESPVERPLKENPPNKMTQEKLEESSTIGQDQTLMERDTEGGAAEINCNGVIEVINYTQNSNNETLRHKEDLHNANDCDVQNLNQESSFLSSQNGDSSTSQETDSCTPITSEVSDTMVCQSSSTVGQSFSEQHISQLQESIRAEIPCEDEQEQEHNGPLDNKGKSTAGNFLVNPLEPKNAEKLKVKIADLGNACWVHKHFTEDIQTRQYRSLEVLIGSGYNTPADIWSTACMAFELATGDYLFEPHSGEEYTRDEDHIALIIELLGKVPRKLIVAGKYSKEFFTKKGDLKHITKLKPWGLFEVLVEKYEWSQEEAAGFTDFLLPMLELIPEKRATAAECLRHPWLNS
Experimental: as §1

PAK4 = target: T9, PAK4 (Homo sapiens, UniProt O96013)
T9 construct: purchased ProQinase (Freiburg, Germany)
T9 sequence (O96013 whole entry): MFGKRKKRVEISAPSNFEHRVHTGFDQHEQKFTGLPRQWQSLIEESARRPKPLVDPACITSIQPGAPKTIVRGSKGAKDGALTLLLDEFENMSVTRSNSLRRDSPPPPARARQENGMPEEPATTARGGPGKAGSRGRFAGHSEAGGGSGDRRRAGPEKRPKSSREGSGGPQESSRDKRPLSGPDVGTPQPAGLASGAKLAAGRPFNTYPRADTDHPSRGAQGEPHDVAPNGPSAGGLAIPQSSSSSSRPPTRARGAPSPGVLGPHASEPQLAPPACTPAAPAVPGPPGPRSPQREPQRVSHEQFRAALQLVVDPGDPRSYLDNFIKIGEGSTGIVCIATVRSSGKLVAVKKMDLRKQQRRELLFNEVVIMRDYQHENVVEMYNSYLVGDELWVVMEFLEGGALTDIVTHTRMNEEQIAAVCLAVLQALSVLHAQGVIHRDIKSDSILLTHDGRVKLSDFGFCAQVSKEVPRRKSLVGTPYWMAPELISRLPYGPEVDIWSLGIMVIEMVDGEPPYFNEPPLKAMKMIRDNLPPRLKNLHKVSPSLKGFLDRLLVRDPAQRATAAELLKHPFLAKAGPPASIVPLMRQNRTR
Experimental: as §1

NEK6 = target: T10, NEK6 (Homo sapiens, UniProt Q9HC98)
T10 construct: purchased ProQinase (Freiburg, Germany)
T10 sequence (Q9HC98 whole entry): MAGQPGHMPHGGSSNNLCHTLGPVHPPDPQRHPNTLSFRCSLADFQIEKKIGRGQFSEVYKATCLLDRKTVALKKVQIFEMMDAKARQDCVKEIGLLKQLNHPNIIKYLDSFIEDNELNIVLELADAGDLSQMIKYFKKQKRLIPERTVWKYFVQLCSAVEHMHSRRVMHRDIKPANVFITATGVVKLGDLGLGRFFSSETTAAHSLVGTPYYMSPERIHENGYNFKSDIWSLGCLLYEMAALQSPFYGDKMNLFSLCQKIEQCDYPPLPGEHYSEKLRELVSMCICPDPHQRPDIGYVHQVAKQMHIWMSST
Experimental: as §1

T1 sequence (P51812 whole entry): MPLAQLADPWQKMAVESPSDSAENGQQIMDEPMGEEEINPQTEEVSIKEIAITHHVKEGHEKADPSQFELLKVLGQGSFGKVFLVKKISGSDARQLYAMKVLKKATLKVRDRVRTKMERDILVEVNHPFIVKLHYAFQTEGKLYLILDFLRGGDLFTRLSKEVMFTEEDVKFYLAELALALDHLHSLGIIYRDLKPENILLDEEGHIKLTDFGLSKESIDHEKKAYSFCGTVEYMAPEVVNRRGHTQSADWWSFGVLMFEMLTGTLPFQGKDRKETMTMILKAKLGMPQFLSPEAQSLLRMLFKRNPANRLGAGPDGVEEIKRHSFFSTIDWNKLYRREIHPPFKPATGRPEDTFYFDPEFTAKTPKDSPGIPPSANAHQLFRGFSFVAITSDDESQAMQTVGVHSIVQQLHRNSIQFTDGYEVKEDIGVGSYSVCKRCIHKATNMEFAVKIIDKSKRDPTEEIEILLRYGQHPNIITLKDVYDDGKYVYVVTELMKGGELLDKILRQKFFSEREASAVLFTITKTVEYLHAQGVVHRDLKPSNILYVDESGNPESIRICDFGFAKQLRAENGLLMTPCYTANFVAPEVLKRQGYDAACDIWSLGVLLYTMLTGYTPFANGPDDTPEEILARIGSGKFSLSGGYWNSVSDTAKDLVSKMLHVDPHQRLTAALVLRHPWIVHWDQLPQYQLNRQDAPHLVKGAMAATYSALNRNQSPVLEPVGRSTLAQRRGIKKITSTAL
T2 sequence (P16234 24-1089): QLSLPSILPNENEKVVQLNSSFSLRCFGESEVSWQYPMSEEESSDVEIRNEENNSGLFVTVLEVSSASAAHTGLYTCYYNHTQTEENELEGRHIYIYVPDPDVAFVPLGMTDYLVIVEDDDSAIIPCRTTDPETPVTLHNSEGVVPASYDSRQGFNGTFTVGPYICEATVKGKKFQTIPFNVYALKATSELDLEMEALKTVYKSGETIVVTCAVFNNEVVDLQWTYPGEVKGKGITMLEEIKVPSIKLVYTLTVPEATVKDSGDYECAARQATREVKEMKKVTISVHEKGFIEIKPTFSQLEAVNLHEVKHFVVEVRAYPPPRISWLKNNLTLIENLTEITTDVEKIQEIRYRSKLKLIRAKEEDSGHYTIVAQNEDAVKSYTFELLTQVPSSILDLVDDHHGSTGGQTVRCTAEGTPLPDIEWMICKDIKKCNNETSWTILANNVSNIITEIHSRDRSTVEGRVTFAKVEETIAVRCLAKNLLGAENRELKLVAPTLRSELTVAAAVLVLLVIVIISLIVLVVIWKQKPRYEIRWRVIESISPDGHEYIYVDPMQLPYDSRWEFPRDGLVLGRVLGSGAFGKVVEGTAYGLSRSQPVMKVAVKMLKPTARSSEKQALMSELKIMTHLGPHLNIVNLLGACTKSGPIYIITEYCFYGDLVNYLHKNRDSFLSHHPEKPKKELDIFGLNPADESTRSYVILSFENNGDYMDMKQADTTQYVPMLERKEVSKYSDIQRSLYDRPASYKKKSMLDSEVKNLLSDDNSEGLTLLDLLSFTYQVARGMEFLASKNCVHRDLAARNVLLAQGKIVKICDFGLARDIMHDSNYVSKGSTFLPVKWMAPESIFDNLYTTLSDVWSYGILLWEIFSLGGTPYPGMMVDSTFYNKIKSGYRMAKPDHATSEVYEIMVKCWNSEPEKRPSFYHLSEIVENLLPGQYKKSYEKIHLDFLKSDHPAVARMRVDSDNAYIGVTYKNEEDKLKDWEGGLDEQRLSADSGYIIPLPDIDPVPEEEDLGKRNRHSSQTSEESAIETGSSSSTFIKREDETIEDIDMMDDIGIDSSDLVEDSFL

**Q.** Which results are given for `O=C(Nc1ccc(F)c(Nc2ccc3c(c2)CCCCC3=O)c1)c1cccc(F)c1` [Compound 109]?
**A.** Residual activity (RPS6KA3; 1.0E-05 M): 84 % of control; Residual activity (RPS6KA3; 1.0E-06 M): 90 % of control; Residual activity (PDGFRalpha; 1.0E-05 M): 92 % of control; Residual activity (PDGFRalpha; 1.0E-06 M): 96 % of control; Residual activity (GRK2; 1.0E-05 M): 88 % of control; Residual activity (GRK2; 1.0E-06 M): 84 % of control; Residual activity (VRK2; 1.0E-05 M): 108 % of control; Residual activity (VRK2; 1.0E-06 M): 107 % of control; Residual activity (EIF2AK3; 1.0E-05 M): 92 % of control; Residual activity (EIF2AK3; 1.0E-06 M): 93 % of control; inhibition at 1 µM (RAF1 YDYD; 1 µM): ≥ 50%; inhibition at 10 µM (RAF1 YDYD): ≥ 50%; Residual activity (RAF1 YDYD; 1.0E-05 M): 12 % of control; Residual activity (RAF1 YDYD; 1.0E-06 M): 36 % of control; Residual activity (TRKC; 1.0E-05 M): 97 % of control; Residual activity (TRKC; 1.0E-06 M): 112 % of control; Residual activity (SRPK1; 1.0E-05 M): 68 % of control; Residual activity (SRPK1; 1.0E-06 M): 96 % of control; Residual activity (PAK4; 1.0E-05 M): 82 % of control; Residual activity (PAK4; 1.0E-06 M): 98 % of control; Residual activity (NEK6; 1.0E-05 M): 92 % of control; Residual activity (NEK6; 1.0E-06 M): 96 % of control

**Q.** How did the Residual activity (RPS6KA3; 1.0E-05 M) turn out when `O=C(Cc1ccccc1)Nc1ccc(F)c(Nc2ccc3c(c2)CCCCC3=O)c1` [Compound 100] was run?
**A.** 80 % of control

**Q.** What about the Residual activity (RPS6KA3; 1.0E-06 M) of the same compound?
**A.** 97 % of control

**Q.** And the Residual activity (PDGFRalpha; 1.0E-05 M)?
**A.** 95 % of control

**Q.** What about the Residual activity (PDGFRalpha; 1.0E-06 M) of the same compound?
**A.** 107 % of control

**Q.** What about the Residual activity (GRK2; 1.0E-05 M) of the same compound?
**A.** 97 % of control

**Q.** What about the Residual activity (GRK2; 1.0E-06 M) of the same compound?
**A.** 97 % of control

**Q.** What about the Residual activity (VRK2; 1.0E-05 M) of the same compound?
**A.** 114 % of control

**Q.** What about the Residual activity (VRK2; 1.0E-06 M) of the same compound?
**A.** 113 % of control

**Q.** What about the Residual activity (EIF2AK3; 1.0E-05 M) of the same compound?
**A.** 102 % of control

**Q.** What about the Residual activity (EIF2AK3; 1.0E-06 M) of the same compound?
**A.** 94 % of control

**Q.** And the “inhibition of RAF1” value (RAF1 YDYD; 1 µM)?
**A.** inhibited considerably

**Q.** What about the inhibition at 10 µM (RAF1 YDYD) of the same compound?
**A.** ≥ 50%

**Q.** And the Residual activity (RAF1 YDYD; 1.0E-05 M)?
**A.** 3 % of control

**Q.** What about the Residual activity (RAF1 YDYD; 1.0E-06 M) of the same compound?
**A.** 14 % of control

**Q.** What about the Residual activity (TRKC; 1.0E-05 M) of the same compound?
**A.** 89 % of control

**Q.** What about the Residual activity (TRKC; 1.0E-06 M) of the same compound?
**A.** 109 % of control

**Q.** And the Residual activity (SRPK1; 1.0E-05 M)?
**A.** 71 % of control

**Q.** What about the Residual activity (SRPK1; 1.0E-06 M) of the same compound?
**A.** 94 % of control

**Q.** What about the Residual activity (PAK4; 1.0E-05 M) of the same compound?
**A.** 92 % of control

**Q.** And the Residual activity (PAK4; 1.0E-06 M)?
**A.** 97 % of control

**Q.** What about the Residual activity (NEK6; 1.0E-05 M) of the same compound?
**A.** 87 % of control

**Q.** What about the Residual activity (NEK6; 1.0E-06 M) of the same compound?
**A.** 95 % of control

Source: paper PMC9030254, “Target Hopping from Protein Kinases to PXR: Identification of Small-Molecule Protein Kinase Inhibitors as Selective Modulators of Pregnane X Receptor from TüKIC Library” (Cells, 2022)
